In PMC12549899 (Nature Communications, 2025):
Positions count from the first letter of the chain named.

Columns and labels:
[1] = target: T1, DrOTOP1 mutants targeting the C-domain pocket (Danio rerio, UniProt Q7ZWK8, G346F/I565W); assay: Whole-cell patch-clamp, inhibition of acid-evoked currents, other DrOTOP1 C-domain pocket mutants (e.g. G346F, Y422F, L531F, I565W/G346F; Supplementary Fig. 5); assay type: cell-based, zebrafish (Danio rerio); settings: DrOTOP1 I565W / G346F; Supp. Fig 5C
T1 construct: A previously generated codon-optimized full-length DrOTOP1[8]; (UniProt: Q7ZWK8) construct; expressed in transfected cells; host or cells: HEK-293 (CRL-1573, ATCC)
T1 sequence (Q7ZWK8 1-586 G346F/I565W): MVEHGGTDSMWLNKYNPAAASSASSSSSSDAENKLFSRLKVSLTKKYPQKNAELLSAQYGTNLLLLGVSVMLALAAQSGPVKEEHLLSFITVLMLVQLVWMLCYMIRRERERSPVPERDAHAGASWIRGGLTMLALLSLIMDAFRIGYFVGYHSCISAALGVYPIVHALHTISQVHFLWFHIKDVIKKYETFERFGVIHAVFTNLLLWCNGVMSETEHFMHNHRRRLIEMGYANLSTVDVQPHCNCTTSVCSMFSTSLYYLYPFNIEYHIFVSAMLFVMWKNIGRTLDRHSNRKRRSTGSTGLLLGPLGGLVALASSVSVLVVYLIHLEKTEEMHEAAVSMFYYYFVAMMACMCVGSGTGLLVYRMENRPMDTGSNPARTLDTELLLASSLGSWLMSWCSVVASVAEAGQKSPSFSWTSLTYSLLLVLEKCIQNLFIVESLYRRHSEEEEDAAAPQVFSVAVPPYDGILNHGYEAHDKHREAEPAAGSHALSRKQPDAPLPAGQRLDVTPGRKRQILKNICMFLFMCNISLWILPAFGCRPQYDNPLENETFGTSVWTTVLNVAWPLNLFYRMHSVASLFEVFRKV
Excerpt: (§1) To experimentally verify whether C11 and C2.2 bind in the C-domain pocket as predicted, we used their docked poses to guide mutagenesis. The predicted interactions for C11 and C2.2 include π-stacking with F342 and Y422, potential H-bonding with Q542, N568, and R572 (Fig. 2J, K and Supplementary Fig. 5A), and hydrophobic packing. We generated single-residue mutants of these and other residues in DrOTOP1 that were expected to disrupt specific molecular interactions or to introduce a bulky tryptophan residue (W) to produce steric hindrance.
(§2) We next tested a subset of these mutants for sensitivity to C2.2, focusing on those that could occlude the C-domain pocket. […]
(§3) Whole-cell patch-clamp recording was performed as previously described[6],[22],[25]. Recordings were made with an Axopatch 200B amplifier, digitized with a Digidata 1322a 16-bit data acquisition system, acquired with pClamp 8.2 and analyzed with Clampfit 10 (Molecular Devices). […]
(§4) All data are presented as mean ± SEM unless otherwise noted, and each data point represents an independent replicant. Inhibition of compounds was quantified as ((I2peak-I1)/(I2peak))*100, where I1 is the current immediately before wash-off and I2peak is the maximum recovered current (Supplementary Fig. 2). Hill coefficients were determined by the following equation: Y = Bmax*X^h/(Kd^h + X^h). […]

[2] = target: T2, DrOTOP1 mutants targeting the C-domain pocket (Danio rerio, UniProt Q7ZWK8, G346F); assay: as above; assay type: cell-based, zebrafish (Danio rerio); settings: 100 µM; DrOTOP1 G346F; compared with WT
T2 construct: A previously generated codon-optimized full-length DrOTOP1[8]; (UniProt: Q7ZWK8) construct; expressed in transfected cells; host or cells: HEK-293 (CRL-1573, ATCC)
T2 sequence (Q7ZWK8 1-586 G346F): T1 sequence (Q7ZWK8 1-586 G346F/I565W) with W565I
Excerpt: as §1, §2, §3, §4

Compound: O=C(/C(=N\O)c1ccccc1)c1ccccc1 [C11, benzil monoxime]
- inhibition of acid-evoked current, mean (Mean of column R) [1]: 28
- Inhibition of currents [2]: slightly reduced inhibition
